Experimental data published in patent publication US7138411B2, “Substituted benzopyran derivatives for the treatment of inflammation” (G.D. Searle & Co., priority 1997, dated 2006).

How the values were obtained:
carrageenan foot edema = assay: Rat carrageenan foot pad edema test; assay type: in vivo, Male Sprague-Dawley rats; design: inhibition in vivo: dose or concentration left out as unconfirmed; conditions: po, 3 h, dosed orally, foot volume three hours after carrageenan, read-out: RAT PAW EDEMA % Inhibition
Method: Rat Carrageenan Foot Pad Edema Test
Male Sprague-Dawley rats were selected in each group so that the average body weight was as close as possible. Rats were fasted with free access to water for over sixteen hours prior to the test. The rats were dosed orally (1 mL) with compounds suspended in vehicle containing 0.5% methylcellulose and 0.025% surfactant, or with vehicle alone. One hour later a subplantar injection of 0.1 mL of 1% solution of carrageenan/sterile 0.9% saline was administered and the volume of the injected foot was measured with a displacement plethysmometer connected to a pressure transducer with a digital indicator. Three hours after the injection of the carrageenan, the volume of the foot was again measured. The average foot swelling in a group of drug-treated animals was compared with that of a group of placebo-treated animals and the percentage inhibition of edema was determined (Otterness and Bliven, Laboratory Models for Testing NSAIDs, in Non-steroidal Anti-Inflammatory Drugs, (J. Lombardino, ed. 1985)).

COX-1 = COX-1 (UniProt P23219); assay: Assay for COX-1 activity (PGE2 ELISA); conditions: read-out: COX-1 IC50; 10–20 minutes pre-incubation, reaction stopped after ten minutes, pH 8.0
Analgesia (Table I) = assay type: in vivo; design: inhibition in vivo: dose or concentration left out as unconfirmed; conditions: read-out: ANALGESIA % Inhibition
COX-2 [1] = target: T1, COX-2 (UniProt P35354); assay: Fast assay for COX-2 activity (PGE2 ELISA); assay type: biochemical, human or murine; conditions: fast assay: 10 min pre-incubation at 25° C., reaction stopped after two minutes, pH 7.5
T1 sequence (P35354 1-604): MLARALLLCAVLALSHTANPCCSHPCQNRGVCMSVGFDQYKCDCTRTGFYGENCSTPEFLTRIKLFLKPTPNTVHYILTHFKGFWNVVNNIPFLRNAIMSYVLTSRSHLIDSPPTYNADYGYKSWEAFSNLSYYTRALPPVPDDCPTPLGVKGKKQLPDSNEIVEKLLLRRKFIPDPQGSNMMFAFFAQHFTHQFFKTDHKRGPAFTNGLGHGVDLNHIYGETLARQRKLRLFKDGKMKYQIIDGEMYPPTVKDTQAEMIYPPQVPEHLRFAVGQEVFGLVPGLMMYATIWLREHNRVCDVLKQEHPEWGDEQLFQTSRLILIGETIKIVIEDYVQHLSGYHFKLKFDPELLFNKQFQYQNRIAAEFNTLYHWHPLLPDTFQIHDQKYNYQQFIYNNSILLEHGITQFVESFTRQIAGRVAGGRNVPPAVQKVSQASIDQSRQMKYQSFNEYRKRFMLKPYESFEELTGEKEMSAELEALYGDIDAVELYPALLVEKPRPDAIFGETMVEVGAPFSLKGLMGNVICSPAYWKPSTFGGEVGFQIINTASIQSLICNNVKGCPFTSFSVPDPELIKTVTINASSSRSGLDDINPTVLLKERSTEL

COX-2 [2] = target: T1, COX-2; assay: Assay for COX-2 activity (PGE2 ELISA); conditions: read-out: COX-2 IC50; 10–20 minutes pre-incubation, reaction stopped after ten minutes, pH 8.0

| IC50 (COX-1) | IC50 (COX-2 [1]) | melting point | IC50 (COX-2 [2]) | SMILES | inhibition in vivo (carrageenan foot edema) | inhibition in vivo (Analgesia (Table I)) | inhibition in vivo at 10 mg/kg (carrageenan foot edema; @ 10 mpk (values marked *)) | inhibition in vivo at 10 mg/kg (Analgesia (Table I); @ 10 mpk (values marked *)) |
| --- | --- | --- | --- | --- | --- | --- | --- | --- |
| 100 nM | < 100 nM | 217.9 to 220.3 °C | < 100 nM | O=C(O)C1=Cc2cc(Cl)cc(Cl)c2SC1C(F)(F)F (stereo not drawn) [Example 156, 6,8-Dichloro-2-trifluoromethyl-2H-1-benzothiopyran-3-carboxylic acid] | 54% | 66% |  |  |
| 300 nM | < 100 nM | 220.2 to 221.8 °C | < 100 nM | O=C(O)C1=Cc2cc(Cl)c(Oc3ccccc3)cc2OC1C(F)(F)F (stereo not drawn) [Example 177, 6-Chloro-7-phenoxy-2-(trifluoromethyl)-2H-1-benzopyran-3-carboxylic acid] |  |  | 59% | 61% |
| 3700 nM | < 100 nM | 223.6 to 225.6 °C | < 100 nM | O=C(O)C1=Cc2cc(Cl)c(Oc3ccc(Cl)cc3Br)cc2OC1C(F)(F)F (stereo not drawn) [Example 188, 7-(2-Bromo-4-chlorophenoxy)-6-chloro-2-(trifluoromethyl)-2H-1-benzopyran-3-carboxylic acid] | 57% | 69% |  |  |
